From ChEMBL document CHEMBL1126386, “-alkoxyphenol leukotriene B4 receptor antagonists: effect of a chroman carboxylic acid” (Bioorg Med Chem Lett, 1992)

How the values were obtained:
[1] = target: Leukotriene B4 receptor (Homo sapiens, UniProt Q9NPC1+Q15722); test: Inhibition of LTB4-induced CD11b/CD18 integrin up-regulation in human neutrophils; assay type: functional
[2] = test system: Cavia porcellus; test: Compound was tested for antagonizing effect of LTB4-induced gas trapping in the guinea pig when administered intravenously; assay type: functional; details: iv

IC50 [1]: 195 nM
Structure (SMILES): CCCc1c(OCCCOc2cc(O)c(OCC)cc2CC)ccc2c1OC(C(=O)O)CC2 (configuration not stated)
ED50 [2]: 0.012 mg/kg
